# Test results reported in US20090028991A1, “Lactobacillus buchneri strain LN1284 and its use to improve aerobic stability of silage” (Pioneer Hi-Bred International, Inc., priority 2006, published 2009).
# Test system: grass silage
# Test: Aerobic stability of grass silage (PVC silos, method of Honig)
# Design: species or system ryegrass
# Experimental: Second cut ryegrass was harvested at PLNC. The grass was determined to have an approximate dry matter of 35%.
# Inoculation: Individual strains were supplied as fresh grown overnight culture. Cultures were adjusted to a standard concentration of 5.0×10^7 CFU/mL and applied using a syringe at a rate of 2.2 mL/kg of forage. The application rate for all strains was 1.1×10^5 CFU/g forage. Propionic acid (88%) was applied at a rate of 4.4 mL/kg fresh forage.
# PVC Silos: PVC silos were filled at a packing density of 0.288 kg DM/silo (100 kg DM/m^3); approximately 0.82-0.95 kg/silo. Silos were air infused for 24 hours on days 28 and 42, and opened after 50-60 days of ensiling.
# Aerobic Stability: The method of Honig (Proc. Of the Eurobac. Conf., P. Lingvall and S. Lindgren (ed.) (12-16 Aug. 1986) Swed. Univ. of Agric. Sci. Grass and Forage Report No. 3-1990. Pp. 76-81. Uppsala, Sweden.) was used for measuring aerobic stability (see Table 2). ROT is defined as the time, in hours, for the silage to heat 1.7° C. after exposure to air. Cumm_DD is the integral value of the area between the time ROT is attained and the end of the experiment. Aerobic dry matter loss (% dry matter) was determined relating the increase in temperature and the time to energy losses occurring in the silage.
smiles,measurement,value
"CCC(=O)O [Propionic Acid, Propionic acid]",Aerobic deterioration versus control grass silages,significantly less aerobic deterioration than the control
